Assay results as given in PubChem BioAssay (NCI).
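Results reflect a 48-hour exposure of cells in 96-well plates to compound at five concentrations. At the GI50, growth is halved. TGI marks complete inhibition of growth.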

Tests used:
Experiment in all cases: growth of human tumour cells (NCI), 48 h
RXF 393 renal = system: RXF 393 renal
COLO 205 colon = system: COLO 205 colon
SK-OV-3 ovarian = system: SK-OV-3 ovarian
SF-539 CNS = system: SF-539 CNS
MALME-3M melanoma = system: MALME-3M melanoma
LOX IMVI melanoma = system: LOX IMVI melanoma
OVCAR-4 ovarian = system: OVCAR-4 ovarian
TK-10 renal = system: TK-10 renal
SK-MEL-28 melanoma = system: SK-MEL-28 melanoma
SK-MEL-2 melanoma = system: SK-MEL-2 melanoma
SF-295 CNS = system: SF-295 CNS
A549 NSCLC = system: A549 NSCLC
DU-145 prostate = system: DU-145 prostate
SR leukemia = system: SR leukemia
HL-60(TB) leukemia = system: HL-60(TB) leukemia
786-0 renal = system: 786-0 renal
NCI-H23 lung = system: NCI-H23 lung
K-562 leukemia = system: K-562 leukemia
RPMI-8226 leukemia = system: RPMI-8226 leukemia
IGROV1 ovarian = system: IGROV1 ovarian
CCRF-CEM leukemia = system: CCRF-CEM leukemia
HOP-62 NSCLC = system: HOP-62 NSCLC
U251 CNS = system: U251 CNS
SW-620 colon = system: SW-620 colon
M14 melanoma = system: M14 melanoma
T-47D breast = system: T-47D breast
OVCAR-3 ovarian = system: OVCAR-3 ovarian
BT-549 breast = system: BT-549 breast
ACHN renal = system: ACHN renal
HS 578T breast = system: HS 578T breast
SK-MEL-5 melanoma = system: SK-MEL-5 melanoma
HCT-15 colon = system: HCT-15 colon
HCC-2998 colon = system: HCC-2998 colon
SF-268 CNS = system: SF-268 CNS
UACC-62 melanoma = system: UACC-62 melanoma
SNB-19 CNS = system: SNB-19 CNS
NCI-H226 lung = system: NCI-H226 lung
MCF7 breast = system: MCF7 breast
HCT-116 colon = system: HCT-116 colon
UO-31 renal = system: UO-31 renal
OVCAR-5 ovarian = system: OVCAR-5 ovarian
HOP-92 NSCLC = system: HOP-92 NSCLC
CAKI-1 renal = system: CAKI-1 renal
NCI/ADR-RES ovarian = system: NCI/ADR-RES ovarian
KM12 colon = system: KM12 colon
MDA-MB-435 = system: MDA-MB-435
NCI-H522 lung = system: NCI-H522 lung
MDA-MB-231 breast = system: MDA-MB-231 breast
A498 renal = system: A498 renal
UACC-257 melanoma = system: UACC-257 melanoma
SN12C renal = system: SN12C renal
SNB-75 CNS = system: SNB-75 CNS
NCI-H460 lung = system: NCI-H460 lung
OVCAR-8 ovarian = system: OVCAR-8 ovarian
PC-3 prostate = system: PC-3 prostate
MOLT-4 leukemia = system: MOLT-4 leukemia
HT29 colon = system: HT29 colon
EKVX NSCLC = system: EKVX NSCLC

## COC(=O)[C@H](Cc1cn(C)cn1)NC(=O)[C@H](C)NC(=O)Nc1cc(C(F)(F)F)cc(C(F)(F)F)c1
RXF 393 renal
  GI50: > 10 µM
  TGI: > 10 µM
COLO 205 colon
  GI50: > 10 µM
  TGI: > 10 µM
SK-OV-3 ovarian
  GI50: > 10 µM
  TGI: > 10 µM
SF-539 CNS
  GI50: > 10 µM
  TGI: > 10 µM
MALME-3M melanoma
  GI50: > 10 µM
  TGI: > 10 µM
LOX IMVI melanoma
  GI50: > 10 µM
  TGI: > 10 µM
OVCAR-4 ovarian
  GI50: > 10 µM
  TGI: > 10 µM
TK-10 renal
  GI50: > 10 µM
  TGI: > 10 µM
SK-MEL-28 melanoma
  GI50: > 10 µM
  TGI: > 10 µM
SK-MEL-2 melanoma
  GI50: > 10 µM
  TGI: > 10 µM
SF-295 CNS
  GI50: > 10 µM
  TGI: > 10 µM
A549 NSCLC
  GI50: > 10 µM
  TGI: > 10 µM
DU-145 prostate
  GI50: > 10 µM
  TGI: > 10 µM
SR leukemia
  GI50: > 10 µM
  TGI: > 10 µM
HL-60(TB) leukemia
  GI50: > 10 µM
  TGI: > 10 µM
786-0 renal
  GI50: > 10 µM
  TGI: > 10 µM
NCI-H23 lung
  GI50: > 10 µM
  TGI: > 10 µM
K-562 leukemia
  GI50: > 10 µM
  TGI: > 10 µM
RPMI-8226 leukemia
  GI50: > 10 µM
  TGI: > 10 µM
IGROV1 ovarian
  GI50: > 10 µM
  TGI: > 10 µM
CCRF-CEM leukemia
  GI50: > 10 µM
  TGI: > 10 µM
HOP-62 NSCLC
  GI50: > 10 µM
  TGI: > 10 µM
U251 CNS
  GI50: > 10 µM
  TGI: > 10 µM
SW-620 colon
  GI50: > 10 µM
  TGI: > 10 µM
M14 melanoma
  GI50: > 10 µM
  TGI: > 10 µM
T-47D breast
  GI50: 7.58 µM
  TGI: > 10 µM
OVCAR-3 ovarian
  GI50: > 10 µM
  TGI: > 10 µM
BT-549 breast
  GI50: > 10 µM
  TGI: > 10 µM
ACHN renal
  GI50: > 10 µM
  TGI: > 10 µM
HS 578T breast
  GI50: > 10 µM
  TGI: > 10 µM
SK-MEL-5 melanoma
  GI50: > 10 µM
  TGI: > 10 µM
HCT-15 colon
  GI50: > 10 µM
  TGI: > 10 µM
HCC-2998 colon
  GI50: > 10 µM
  TGI: > 10 µM
SF-268 CNS
  GI50: > 10 µM
  TGI: > 10 µM
UACC-62 melanoma
  GI50: > 10 µM
  TGI: > 10 µM
SNB-19 CNS
  GI50: > 10 µM
  TGI: > 10 µM
NCI-H226 lung
  GI50: > 10 µM
  TGI: > 10 µM
MCF7 breast
  GI50: > 10 µM
  TGI: > 10 µM
HCT-116 colon
  GI50: > 10 µM
  TGI: > 10 µM
UO-31 renal
  GI50: > 10 µM
  TGI: > 10 µM
OVCAR-5 ovarian
  GI50: > 10 µM
  TGI: > 10 µM
HOP-92 NSCLC
  GI50: > 10 µM
  TGI: > 10 µM
CAKI-1 renal
  GI50: > 10 µM
  TGI: > 10 µM
NCI/ADR-RES ovarian
  GI50: > 10 µM
  TGI: > 10 µM
KM12 colon
  GI50: > 10 µM
  TGI: > 10 µM
MDA-MB-435
  GI50: > 10 µM
  TGI: > 10 µM
NCI-H522 lung
  GI50: > 10 µM
  TGI: > 10 µM
MDA-MB-231 breast
  GI50: > 10 µM
  TGI: > 10 µM
A498 renal
  GI50: > 10 µM
  TGI: > 10 µM
UACC-257 melanoma
  GI50: > 10 µM
  TGI: > 10 µM
SN12C renal
  GI50: > 10 µM
  TGI: > 10 µM
SNB-75 CNS
  GI50: > 10 µM
  TGI: > 10 µM
NCI-H460 lung
  GI50: > 10 µM
  TGI: > 10 µM
OVCAR-8 ovarian
  GI50: > 10 µM
  TGI: > 10 µM
PC-3 prostate
  GI50: > 10 µM
  TGI: > 10 µM
MOLT-4 leukemia
  GI50: > 10 µM
  TGI: > 10 µM
HT29 colon
  GI50: > 10 µM
  TGI: > 10 µM

## COCCOCCOCc1n(Cc2ccc3ccccc3n2)c2ccccc2[n+]1Cc1ccc2ccccc2n1
RXF 393 renal
  GI50: 1.23 µM
  TGI: 9.7 µM
COLO 205 colon
  GI50: 0.284 µM
  TGI: 1.5 µM
SK-OV-3 ovarian
  GI50: 1.79 µM
  TGI: 6.6 µM
SF-539 CNS
  GI50: 0.852 µM
  TGI: 13.6 µM
EKVX NSCLC
  GI50: 2.55 µM
  TGI: 24.4 µM
MALME-3M melanoma
  GI50: 0.658 µM
  TGI: 8.67 µM
LOX IMVI melanoma
  GI50: 1.14 µM
  TGI: 10.4 µM
OVCAR-4 ovarian
  GI50: 0.373 µM
  TGI: 13.3 µM
TK-10 renal
  GI50: 4.02 µM
  TGI: 16.2 µM
SK-MEL-28 melanoma
  GI50: 0.759 µM
  TGI: 14.5 µM
SK-MEL-2 melanoma
  GI50: 0.447 µM
  TGI: 2.39 µM
SF-295 CNS
  GI50: 1.69 µM
  TGI: 8.19 µM
A549 NSCLC
  GI50: 3.21 µM
  TGI: 69.5 µM
DU-145 prostate
  GI50: 2.67 µM
  TGI: 41.8 µM
SR leukemia
  GI50: 0.663 µM
  TGI: 11.8 µM
HL-60(TB) leukemia
  GI50: 0.26 µM
  TGI: 1.31 µM
786-0 renal
  GI50: 3.74 µM
  TGI: 15.5 µM
NCI-H23 lung
  GI50: 0.657 µM
  TGI: 12.2 µM
K-562 leukemia
  GI50: 0.421 µM
  TGI: 13.2 µM
RPMI-8226 leukemia
  GI50: 0.138 µM
  TGI: 12.4 µM
IGROV1 ovarian
  GI50: 0.645 µM
  TGI: 11.8 µM
CCRF-CEM leukemia
  GI50: 1.78 µM
  TGI: 16 µM
HOP-62 NSCLC
  GI50: 2.44 µM
  TGI: 14.3 µM
U251 CNS
  GI50: 0.354 µM
  TGI: 12.9 µM
SW-620 colon
  GI50: 2.03 µM
  TGI: 17.2 µM
M14 melanoma
  GI50: 1.56 µM
  TGI: 12.8 µM
T-47D breast
  GI50: 0.302 µM
  TGI: 13.1 µM
OVCAR-3 ovarian
  GI50: 0.479 µM
  TGI: 13.8 µM
BT-549 breast
  GI50: 0.369 µM
  TGI: 4.42 µM
ACHN renal
  GI50: 13.7 µM
  TGI: 81.7 µM
HS 578T breast
  GI50: 2.16 µM
  TGI: 21 µM
SK-MEL-5 melanoma
  GI50: 0.388 µM
  TGI: 1.48 µM
HCT-15 colon
  GI50: 15.8 µM
  TGI: 52 µM
HCC-2998 colon
  GI50: 0.912 µM
  TGI: 14.4 µM
SF-268 CNS
  GI50: 0.903 µM
  TGI: 16.2 µM
UACC-62 melanoma
  GI50: 0.424 µM
  TGI: 10.2 µM
SNB-19 CNS
  GI50: 0.444 µM
  TGI: 13.5 µM
NCI-H226 lung
  GI50: 2.44 µM
  TGI: 18.4 µM
MCF7 breast
  GI50: 0.369 µM
  TGI: 11.1 µM
HCT-116 colon
  GI50: 1.26 µM
  TGI: 11.7 µM
UO-31 renal
  GI50: 12.1 µM
  TGI: 36.2 µM
OVCAR-5 ovarian
  GI50: 2.5 µM
  TGI: 18 µM
HOP-92 NSCLC
  GI50: 0.217 µM
  TGI: 2.74 µM
NCI/ADR-RES ovarian
  GI50: > 100 µM
  TGI: > 100 µM
KM12 colon
  GI50: 0.502 µM
  TGI: 6.13 µM
MDA-MB-435
  GI50: 0.387 µM
  TGI: 10.8 µM
NCI-H522 lung
  GI50: 0.415 µM
  TGI: 11.1 µM
MDA-MB-231 breast
  GI50: 1.02 µM
  TGI: 9.58 µM
A498 renal
  GI50: 2.48 µM
  TGI: 7.74 µM
UACC-257 melanoma
  GI50: 0.277 µM
  TGI: 3.73 µM
SN12C renal
  GI50: 0.306 µM
  TGI: 11.1 µM
SNB-75 CNS
  GI50: 0.317 µM
  TGI: 4.3 µM
NCI-H460 lung
  GI50: 1.87 µM
  TGI: 12.4 µM
OVCAR-8 ovarian
  GI50: 1.27 µM
  TGI: 12.6 µM
PC-3 prostate
  GI50: 0.591 µM
  TGI: 11.7 µM
MOLT-4 leukemia
  GI50: 1.88 µM
  TGI: 13 µM
HT29 colon
  GI50: 0.53 µM
  TGI: 10.6 µM
